In US10954214B2 (Janssen Pharmaceutica NV, priority 2016, dated 2021):

Assays:
[1] = system: IL10 secretion by OCI-LY3 ABC-DLBCL cells; experiment: Human IL10 Mesoscale assay (OCI-LY3); assay type: cell-based; details: 24 h
Summary of the method: (§1)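 After 24 h at 37 °C with test compounds (15 μM down to 58.6 nM, 9 twofold steps, 0.3% DMSO), IL6 and IL10 secreted by 100,000 OCI-LY3 or TMD8 cells per well were measured in supernatants with a Mesoscale immunoassay. Data were scaled between DMSO wells (high) and RN486 treatment (low).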

[2] = system: IL6 secretion by TMD8 ABC-DLBCL cells; experiment: Human IL6 Mesoscale assay (TMD-8); assay type: cell-based; details: Homo sapiens, TMD8; TMD-8 cells, 24 h
Summary of the method: as §1

[3] = system: IL10 secretion by TMD8 ABC-DLBCL cells; experiment: Human IL10 Mesoscale assay (TMD-8); assay type: cell-based; details: Homo sapiens, TMD8; TMD-8 cells, 24 h
Summary of the method: as §1

[4] = system: IL6 secretion by OCI-LY3 ABC-DLBCL cells; experiment: Human IL6 Mesoscale assay (OCI-LY3); assay type: cell-based; details: 24 h
Summary of the method: as §1

[5] = molecular target: full-length MALT1 protein (Strep-MALT1(1-824)-His) (Homo sapiens (Human), UniProt Q9UDY8); experiment: MALT1 Biochemical Protease Assay (Ac-LRSR-AMC substrate); details: 10 nM FL MALT1, 200 μM Ac-LRSR-AMC, 4 h at RT; read-out: MALT1_Biochemical activity (Ac-LRSR-amc) IC50
Summary of the method: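 Full-length MALT1 pre-incubated with compounds (30 μM to 0.5 nM, 11 threefold steps) for 50 min at RT. After Ac-LRSR-AMC was added, the reaction ran 4 h at RT and AMC fluorescence was read. IC50 and Hill slope from curve fitting against no-enzyme and no-compound controls.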

full-length MALT1 protein (Strep-MALT1(1-824)-His), sequence (Q9UDY8 whole entry): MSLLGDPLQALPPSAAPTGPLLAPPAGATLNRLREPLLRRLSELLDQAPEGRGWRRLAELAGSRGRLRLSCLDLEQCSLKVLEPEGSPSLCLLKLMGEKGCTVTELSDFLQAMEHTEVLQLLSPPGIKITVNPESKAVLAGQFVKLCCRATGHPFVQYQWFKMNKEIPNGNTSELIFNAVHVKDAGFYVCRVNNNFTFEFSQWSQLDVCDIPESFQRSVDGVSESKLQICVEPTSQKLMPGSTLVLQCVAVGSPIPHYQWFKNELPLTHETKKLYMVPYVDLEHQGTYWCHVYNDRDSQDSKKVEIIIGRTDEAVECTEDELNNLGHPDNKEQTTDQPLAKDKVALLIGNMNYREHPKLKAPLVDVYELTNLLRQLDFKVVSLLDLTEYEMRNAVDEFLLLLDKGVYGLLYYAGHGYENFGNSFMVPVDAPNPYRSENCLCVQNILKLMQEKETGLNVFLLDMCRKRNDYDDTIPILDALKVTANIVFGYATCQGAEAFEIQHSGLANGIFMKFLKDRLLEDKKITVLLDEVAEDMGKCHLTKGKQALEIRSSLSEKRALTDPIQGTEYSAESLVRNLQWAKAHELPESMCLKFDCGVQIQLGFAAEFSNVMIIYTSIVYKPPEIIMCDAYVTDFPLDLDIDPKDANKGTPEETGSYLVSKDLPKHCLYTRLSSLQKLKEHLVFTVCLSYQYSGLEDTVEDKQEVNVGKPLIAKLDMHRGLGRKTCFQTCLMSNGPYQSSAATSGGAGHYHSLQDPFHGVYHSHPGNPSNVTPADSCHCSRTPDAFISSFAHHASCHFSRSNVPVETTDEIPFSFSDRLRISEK

Row | IC50 ([1]; Homo sapiens) [nM] | IC50 [2] [nM] | IC50 [3] [nM] | IC50 ([4]; Homo sapiens) [nM] | IC50 [5] [nM] | Compound | IC50 [1] [nM] | IC50 [4] [nM]
1 | 40 | 110 | 100 | 34 | 21 | O=C(Nc1cnc(-n2nccn2)c(Cl)c1)c1cnn(-c2cccc3c[n+]([O-])ccc23)c1C(F)(F)F [Cpd 407, 5-(4-((5-chloro-6-(2H-1,2,3-triazol-2-yl)pyridin-3-yl)carbamoyl)-5-(trifluoromethyl)-1H-pyrazol-1-yl)isoquinoline 2-oxide] |  | 
2 | 14 | 120 | 123 | 18 | 5890 | O=C(Nc1cnc(-n2nccn2)c(Cl)c1)c1cnn(-c2cccc3c(C4CCN4)nccc23)c1C(F)(F)F (centres unmarked) [Cpd 384, 1-(1-(azetidin-2-yl)isoquinolin-5-yl)-N-(5-chloro-6-(2H-1,2,3-triazol-2-yl)pyridin-3-yl)-5-(trifluoromethyl)-1H-pyrazole-4-carboxamide] |  | 
3 | 275 | 234 | 174 | 251 | 282 | Cc1nc(-n2cccn2)c(Cl)cc1NC(=O)c1cnn(-c2cccc3nnsc23)c1C(F)(F)F [Cpd 303, 1-(benzo[d][1,2,3]thiadiazol-7-yl)-N-(5-chloro-2-methyl-6-(1H-pyrazol-1-yl)pyridin-3-yl)-5-(trifluoromethyl)-1H-pyrazole-4-carboxamide] |  | 
4 | 135 | 562 | 708 | 148 | 214 | CN(C)c1ncc(-n2ncc(C(=O)Nc3cnc(-n4nccn4)c(Cl)c3)c2C(F)(F)F)c2ccccc12 [Cpd 322, N-(5-chloro-6-(2H-1,2,3-triazol-2-yl)pyridin-3-yl)-1-(1-(dimethylamino)isoquinolin-4-yl)-5-(trifluoromethyl)-1H-pyrazole-4-carboxamide] |  | 
5 | 155 | 741 | 245 | 174 | 398 | NC(=O)c1cnn(-c2ccc(NC(=O)c3cnn(-c4cccc5ncccc45)c3C(F)(F)F)cc2Cl)n1 [Cpd 244, 2-(2-chloro-4-(1-(quinolin-5-yl)-5-(trifluoromethyl)-1H-pyrazole-4-carboxamido)phenyl)-2H-1,2,3-triazole-4-carboxamide] |  | 
6 | 87 | 170 | 95 | 89 | 132 | O=C(Nc1cnc(-n2nccn2)c(Cl)c1)c1cnn(-c2cccc3nc(F)ccc23)c1C(F)(F)F [Cpd 277, N-(5-chloro-6-(2H-1,2,3-triazol-2-yl)pyridin-3-yl)-1-(2-fluoroquinolin-5-yl)-5-(trifluoromethyl)-1H-pyrazole-4-carboxamide] |  | 
7 | 81 | 141 | 162 | 54 | 112 | O=C(Nc1cnc(-n2nccn2)c(Cl)c1)c1cnn(-c2cccc3c2ccc[n+]3[O-])c1C(F)(F)F [Cpd 408, 5-(4-((5-chloro-6-(2H-1,2,3-triazol-2-yl)pyridin-3-yl)carbamoyl)-5-(trifluoromethyl)-1H-pyrazol-1-yl)quinoline 1-oxide] |  | 
8 | 129 | 363 | 339 | 120 | 417 | COc1nccc2c(-n3ncc(C(=O)Nc4cnc(-n5nccn5)c(Cl)c4)c3C(F)(F)F)cccc12 [Cpd 243, N-(5-chloro-6-(2H-1,2,3-triazol-2-yl)pyridin-3-yl)-1-(1-methoxyisoquinolin-5-yl)-5-(trifluoromethyl)-1H-pyrazole-4-carboxamide] |  | 
9 | 68 | 78 | 98 | 100 | 76 | Cc1nc(-n2nccn2)c(Cl)cc1NC(=O)c1cnn(-c2cccc3nccn23)c1C(F)(F)F [Cpd 194, N-(5-chloro-2-methyl-6-(2H-1,2,3-triazol-2-yl)pyridin-3-yl)-1-(imidazo[1,2-a]pyridin-5-yl)-5-(trifluoromethyl)-1H-pyrazole-4-carboxamide] |  | 
10 | 36 | 95 | 105 | 27 | 10000 | CC(C)(C)OC(=O)N1CCC1c1nccc2c(-n3ncc(C(=O)Nc4cnc(-n5nccn5)c(Cl)c4)c3C(F)(F)F)cccc12 (centres unmarked) [Cpd 383, tert-butyl 2-(5-(4-((5-chloro-6-(2H-1,2,3-triazol-2-yl)pyridin-3-yl)carbamoyl)-5-(trifluoromethyl)-1H-pyrazol-1-yl)isoquinolin-1-yl)azetidine-1-carboxylate] |  | 
11 | 12 |  |  | 12 | 2000 | O=C(Nc1cnc(-n2nccn2)c(Cl)c1)c1cnn(-c2cccc3nc(C4CCCO4)ccc23)c1C(F)(F)F (centres unmarked) [Cpd 372, N-(5-chloro-6-(2H-1,2,3-triazol-2-yl)pyridin-3-yl)-1-(2-(tetrahydrofuran-2-yl)quinolin-5-yl)-5-(trifluoromethyl)-1H-pyrazole-4-carboxamide] |  | 
12 | 178 |  |  | 186 | 158 | Cn1nc(-n2ncc(C(=O)Nc3cnc(-n4nccn4)c(C#N)c3)c2C(F)(F)F)c2ccccc21 [Cpd 266, N-(5-cyano-6-(2H-1,2,3-triazol-2-yl)pyridin-3-yl)-1-(1-methyl-1H-indazol-3-yl)-5-(trifluoromethyl)-1H-pyrazole-4-carboxamide] |  | 
13 | 158 |  |  | 204 | 9 | O=C(Nc1cnc(-n2nccn2)c(Cl)c1)c1cnn(-c2cnc(N3CC[C@@H](O)C3)c3ccccc23)c1C(F)(F)F [Cpd 427, (R)—N-(5-chloro-6-(2H-1,2,3-triazol-2-yl)pyridin-3-yl)-1-(1-(3-hydroxypyrrolidin-1-yl)isoquinolin-4-yl)-5-(trifluoromethyl)-1H-pyrazole-4-carboxamide] |  | 
14 | 174 |  |  | 191 | 11 | CCOc1ncc(-n2ncc(C(=O)Nc3cnc(-n4nccn4)c(Cl)c3)c2C(F)(F)F)c2ccccc12 [Cpd 422, N-(5-chloro-6-(2H-1,2,3-triazol-2-yl)pyridin-3-yl)-1-(1-ethoxyisoquinolin-4-yl)-5-(trifluoromethyl)-1H-pyrazole-4-carboxamide] |  | 
15 | 112 |  |  | 251 | 30 | CSc1ncc(-n2ncc(C(=O)Nc3cnc(-n4nccn4)c(Cl)c3)c2C(F)(F)F)c2ccccc12 [Cpd 429, N-(5-chloro-6-(2H-1,2,3-triazol-2-yl)pyridin-3-yl)-1-(1-(methylthio)isoquinolin-4-yl)-5-(trifluoromethyl)-1H-pyrazole-4-carboxamide] |  | 
16 | 93 |  |  | 182 | 69 | O=C(Nc1ccnc(C(F)(F)F)c1)c1cnn(-c2cncc3c(F)cccc23)c1C(F)(F)F [Cpd 320, 1-(8-fluoroisoquinolin-4-yl)-5-(trifluoromethyl)-N-(2-(trifluoromethyl)pyridin-4-yl)-1H-pyrazole-4-carboxamide] |  | 
17 | 417 |  |  | 501 | 141 | O=C(Nc1cc(Cl)c(-n2nccn2)cc1F)c1cnn(-c2cccc3nnsc23)c1C(F)(F)F [Cpd 301, 1-(benzo[d][1,2,3]thiadiazol-7-yl)-N-(5-chloro-2-fluoro-4-(2H-1,2,3-triazol-2-yl)phenyl)-5-(trifluoromethyl)-1H-pyrazole-4-carboxamide] |  | 

Row | Compound | IC50 ([1]; Homo sapiens) [nM] | IC50 [2] [nM] | IC50 [3] [nM] | IC50 ([4]; Homo sapiens) [nM] | IC50 [5] [nM] | IC50 [1] [nM] | IC50 [4] [nM]
18 | N-(5-cyano-6-(2H-1,2,3-triazol-2-yl)pyridin-3-yl)-1-(imidazo[1,2-a]pyrazin-5-yl)-3-(trifluoromethyl)-1H-pyrazole-4-carboxamide [Cpd 275] |  |  |  |  | 138 | 234 | 240
